Laboratory results from patent publication US7074789B2, “Kinase inhibitors” (Amgen Inc., priority 1999, dated 2006).

Assays:
Format in all cases: biochemical
[1] = target: T1, PDGFRB (Homo sapiens, UniProt P09619); test: Kinase inhibition assay (33P transfer), PDGFRB; conditions: read-out: PDGFRB-1
T1 construct: Kinases are expressed as either kinase domains or full length constructs; made in house

[2] = target: T2, Lck (Homo sapiens, UniProt P06239); test: Kinase inhibition assay (33P transfer), Lck; conditions: Table 3, class symbols; read-out: Lck-1
T2 construct: Kinases are expressed as either kinase domains or full length constructs; made in house
T2 sequence (P06239 whole entry, species assumed, the tested form may be a part): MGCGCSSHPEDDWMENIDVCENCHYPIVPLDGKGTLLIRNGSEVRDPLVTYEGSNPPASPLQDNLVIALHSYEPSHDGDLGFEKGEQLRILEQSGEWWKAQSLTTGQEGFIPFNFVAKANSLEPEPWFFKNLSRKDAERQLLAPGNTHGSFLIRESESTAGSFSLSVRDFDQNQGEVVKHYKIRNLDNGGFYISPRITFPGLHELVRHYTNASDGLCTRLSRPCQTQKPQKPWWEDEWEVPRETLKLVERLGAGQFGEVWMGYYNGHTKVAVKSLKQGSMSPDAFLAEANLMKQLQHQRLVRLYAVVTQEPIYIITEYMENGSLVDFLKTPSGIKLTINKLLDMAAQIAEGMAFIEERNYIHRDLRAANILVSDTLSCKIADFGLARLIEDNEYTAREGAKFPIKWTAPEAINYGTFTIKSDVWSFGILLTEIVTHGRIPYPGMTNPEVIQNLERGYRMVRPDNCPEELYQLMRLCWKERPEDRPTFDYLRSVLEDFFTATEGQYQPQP
How it was run: (§1)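 Liquid scintillation counting of 33P on plate-bound synthetic substrates gives kinase activity. Plates are washed in 0.5% phosphoric acid first; kinases are tagged recombinant proteins from E. coli or baculovirus-infected High Five cells.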

[3] = target: T3, Zap-70 (Homo sapiens, UniProt P43403); test: Kinase inhibition assay (33P transfer), Zap-70; conditions: Table 3, class symbols; read-out: Zap-1
T3 construct: Kinases are expressed as either kinase domains or full length constructs; made in house
T3 sequence (P43403 1-619): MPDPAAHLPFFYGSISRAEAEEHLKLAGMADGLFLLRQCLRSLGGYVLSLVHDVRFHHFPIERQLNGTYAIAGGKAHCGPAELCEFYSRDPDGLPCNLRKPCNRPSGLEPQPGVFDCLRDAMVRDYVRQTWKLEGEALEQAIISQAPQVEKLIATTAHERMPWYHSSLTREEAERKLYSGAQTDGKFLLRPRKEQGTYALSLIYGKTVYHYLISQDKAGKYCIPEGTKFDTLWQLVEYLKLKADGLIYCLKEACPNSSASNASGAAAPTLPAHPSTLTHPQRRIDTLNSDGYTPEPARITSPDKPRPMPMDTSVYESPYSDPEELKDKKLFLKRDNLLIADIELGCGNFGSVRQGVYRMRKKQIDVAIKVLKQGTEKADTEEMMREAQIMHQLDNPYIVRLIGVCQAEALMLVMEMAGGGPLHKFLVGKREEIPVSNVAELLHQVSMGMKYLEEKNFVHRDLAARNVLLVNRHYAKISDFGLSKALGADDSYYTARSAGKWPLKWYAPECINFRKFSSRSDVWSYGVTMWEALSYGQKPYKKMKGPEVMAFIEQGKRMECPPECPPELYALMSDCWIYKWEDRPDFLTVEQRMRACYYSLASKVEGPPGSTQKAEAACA
How it was run: as §1

[4] = target: T4, EGFR (Homo sapiens, UniProt P00533); test: Kinase inhibition assay (33P transfer), EGFR; conditions: Table 2, class symbols A-E; read-out: EGFR-1
T4 construct: Kinases are expressed as either kinase domains or full length constructs; made in house
How it was run: (§2)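 Each enzyme, purified to near homogeneity by affinity chromatography, was incubated with ATP carrying 33P and a substrate polymer fixed to the plate. Unbound label was removed with dilute phosphoric acid (0.5%) before adding scintillant and counting. Potency is given as the compound level cutting label uptake by 50%.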

[5] = target: T5, AKT (Homo sapiens, UniProt Q9Y243); test: Kinase inhibition assay (33P transfer), AKT; conditions: Table 2, class symbols A-E; read-out: AKT3-1
T5 construct: Kinases are expressed as either kinase domains or full length constructs; made in house
T5 sequence (Q9Y243 whole entry, the tested form may be a part): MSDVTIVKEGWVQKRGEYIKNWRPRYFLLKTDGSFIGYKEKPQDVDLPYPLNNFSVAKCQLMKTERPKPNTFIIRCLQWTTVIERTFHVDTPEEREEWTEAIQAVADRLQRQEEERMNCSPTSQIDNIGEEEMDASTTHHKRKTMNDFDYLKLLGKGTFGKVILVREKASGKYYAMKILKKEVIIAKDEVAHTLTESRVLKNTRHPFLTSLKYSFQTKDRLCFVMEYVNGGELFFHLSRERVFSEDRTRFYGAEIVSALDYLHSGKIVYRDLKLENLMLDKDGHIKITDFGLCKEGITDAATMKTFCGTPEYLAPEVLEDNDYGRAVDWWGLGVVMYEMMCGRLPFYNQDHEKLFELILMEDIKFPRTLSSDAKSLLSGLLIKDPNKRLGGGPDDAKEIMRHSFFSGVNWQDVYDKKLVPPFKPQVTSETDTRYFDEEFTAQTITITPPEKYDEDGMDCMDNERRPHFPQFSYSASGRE
How it was run: as §1

[6] = target: T6, c-Met (Homo sapiens, UniProt P08581); test: Kinase inhibition assay (33P transfer), c-Met; conditions: Table 2, class symbols A-E; read-out: Met-1
T6 construct: Kinases are expressed as either kinase domains or full length constructs; made in house
T6 sequence (P08581 25-1390): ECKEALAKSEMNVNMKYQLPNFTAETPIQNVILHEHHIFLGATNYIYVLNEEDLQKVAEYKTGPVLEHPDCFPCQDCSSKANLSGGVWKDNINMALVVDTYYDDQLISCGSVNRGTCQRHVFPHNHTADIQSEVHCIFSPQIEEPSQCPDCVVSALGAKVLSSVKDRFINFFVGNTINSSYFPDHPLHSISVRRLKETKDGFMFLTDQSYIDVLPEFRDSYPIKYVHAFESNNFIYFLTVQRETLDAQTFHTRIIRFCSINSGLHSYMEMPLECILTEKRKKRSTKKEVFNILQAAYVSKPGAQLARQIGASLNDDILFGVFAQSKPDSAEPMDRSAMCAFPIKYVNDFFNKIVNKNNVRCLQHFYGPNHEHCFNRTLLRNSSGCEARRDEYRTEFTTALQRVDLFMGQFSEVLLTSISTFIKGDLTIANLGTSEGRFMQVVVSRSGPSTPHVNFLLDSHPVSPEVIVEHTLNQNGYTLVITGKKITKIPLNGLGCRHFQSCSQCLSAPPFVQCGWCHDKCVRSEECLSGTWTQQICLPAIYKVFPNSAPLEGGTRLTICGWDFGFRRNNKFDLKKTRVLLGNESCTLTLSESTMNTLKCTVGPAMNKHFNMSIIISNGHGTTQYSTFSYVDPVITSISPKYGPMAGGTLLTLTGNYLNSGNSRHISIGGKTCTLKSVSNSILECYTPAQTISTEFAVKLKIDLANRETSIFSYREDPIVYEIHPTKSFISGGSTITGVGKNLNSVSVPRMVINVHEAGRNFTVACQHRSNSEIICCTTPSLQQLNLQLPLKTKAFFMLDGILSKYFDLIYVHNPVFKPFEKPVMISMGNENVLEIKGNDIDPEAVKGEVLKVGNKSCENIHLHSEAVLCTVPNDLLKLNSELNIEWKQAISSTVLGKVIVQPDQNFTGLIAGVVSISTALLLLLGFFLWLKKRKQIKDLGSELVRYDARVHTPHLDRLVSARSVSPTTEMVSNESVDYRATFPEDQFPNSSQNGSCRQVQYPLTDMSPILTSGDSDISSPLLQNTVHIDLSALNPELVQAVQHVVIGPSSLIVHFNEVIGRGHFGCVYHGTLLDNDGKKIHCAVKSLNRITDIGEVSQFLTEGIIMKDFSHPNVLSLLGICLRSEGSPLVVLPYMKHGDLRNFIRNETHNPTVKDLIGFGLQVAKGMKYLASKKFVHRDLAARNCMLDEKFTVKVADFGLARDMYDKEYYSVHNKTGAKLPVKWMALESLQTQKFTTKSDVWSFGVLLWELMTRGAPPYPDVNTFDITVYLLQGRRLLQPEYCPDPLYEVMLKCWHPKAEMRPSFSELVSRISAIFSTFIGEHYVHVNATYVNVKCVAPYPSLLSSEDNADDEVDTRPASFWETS
How it was run: as §2

[7] = target: T7, Itk (Homo sapiens, UniProt Q08881); test: Kinase inhibition assay (33P transfer), Itk; conditions: Table 3, class symbols; read-out: Itk-1
T7 construct: Kinases are expressed as either kinase domains or full length constructs; made in house
T7 sequence (Q08881 1-620): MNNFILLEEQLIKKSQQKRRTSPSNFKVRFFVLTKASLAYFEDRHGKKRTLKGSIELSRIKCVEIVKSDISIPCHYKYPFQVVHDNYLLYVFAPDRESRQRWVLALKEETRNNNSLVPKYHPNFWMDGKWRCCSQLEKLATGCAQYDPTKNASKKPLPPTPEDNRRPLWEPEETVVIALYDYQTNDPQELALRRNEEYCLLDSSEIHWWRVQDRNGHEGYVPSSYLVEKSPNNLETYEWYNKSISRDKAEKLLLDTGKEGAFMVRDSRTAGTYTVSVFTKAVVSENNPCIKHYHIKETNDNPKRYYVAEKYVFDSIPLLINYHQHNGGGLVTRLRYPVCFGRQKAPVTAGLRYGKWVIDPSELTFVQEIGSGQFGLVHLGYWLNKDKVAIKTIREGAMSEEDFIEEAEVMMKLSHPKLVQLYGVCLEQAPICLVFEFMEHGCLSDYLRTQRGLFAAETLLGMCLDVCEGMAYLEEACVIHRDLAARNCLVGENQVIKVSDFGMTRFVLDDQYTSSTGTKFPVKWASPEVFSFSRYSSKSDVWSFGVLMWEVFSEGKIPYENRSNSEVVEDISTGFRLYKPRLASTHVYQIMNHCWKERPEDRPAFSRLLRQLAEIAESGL
How it was run: as §2

[8] = target: T8, ErbB2 (Homo sapiens, UniProt P04626); test: Kinase inhibition assay (33P transfer), ErbB2; conditions: read-out: ErbB2-2
T8 construct: Kinases are expressed as either kinase domains or full length constructs; made in house
How it was run: as §2

[9] = target: T9, Kdr (Homo sapiens, UniProt P35968); test: Kinase inhibition assay (33P transfer), Kdr; conditions: Table 3, class symbols; read-out: KDR-1
T9 construct: Kinases are expressed as either kinase domains or full length constructs; made in house
T9 sequence (P35968 20-1356, species assumed): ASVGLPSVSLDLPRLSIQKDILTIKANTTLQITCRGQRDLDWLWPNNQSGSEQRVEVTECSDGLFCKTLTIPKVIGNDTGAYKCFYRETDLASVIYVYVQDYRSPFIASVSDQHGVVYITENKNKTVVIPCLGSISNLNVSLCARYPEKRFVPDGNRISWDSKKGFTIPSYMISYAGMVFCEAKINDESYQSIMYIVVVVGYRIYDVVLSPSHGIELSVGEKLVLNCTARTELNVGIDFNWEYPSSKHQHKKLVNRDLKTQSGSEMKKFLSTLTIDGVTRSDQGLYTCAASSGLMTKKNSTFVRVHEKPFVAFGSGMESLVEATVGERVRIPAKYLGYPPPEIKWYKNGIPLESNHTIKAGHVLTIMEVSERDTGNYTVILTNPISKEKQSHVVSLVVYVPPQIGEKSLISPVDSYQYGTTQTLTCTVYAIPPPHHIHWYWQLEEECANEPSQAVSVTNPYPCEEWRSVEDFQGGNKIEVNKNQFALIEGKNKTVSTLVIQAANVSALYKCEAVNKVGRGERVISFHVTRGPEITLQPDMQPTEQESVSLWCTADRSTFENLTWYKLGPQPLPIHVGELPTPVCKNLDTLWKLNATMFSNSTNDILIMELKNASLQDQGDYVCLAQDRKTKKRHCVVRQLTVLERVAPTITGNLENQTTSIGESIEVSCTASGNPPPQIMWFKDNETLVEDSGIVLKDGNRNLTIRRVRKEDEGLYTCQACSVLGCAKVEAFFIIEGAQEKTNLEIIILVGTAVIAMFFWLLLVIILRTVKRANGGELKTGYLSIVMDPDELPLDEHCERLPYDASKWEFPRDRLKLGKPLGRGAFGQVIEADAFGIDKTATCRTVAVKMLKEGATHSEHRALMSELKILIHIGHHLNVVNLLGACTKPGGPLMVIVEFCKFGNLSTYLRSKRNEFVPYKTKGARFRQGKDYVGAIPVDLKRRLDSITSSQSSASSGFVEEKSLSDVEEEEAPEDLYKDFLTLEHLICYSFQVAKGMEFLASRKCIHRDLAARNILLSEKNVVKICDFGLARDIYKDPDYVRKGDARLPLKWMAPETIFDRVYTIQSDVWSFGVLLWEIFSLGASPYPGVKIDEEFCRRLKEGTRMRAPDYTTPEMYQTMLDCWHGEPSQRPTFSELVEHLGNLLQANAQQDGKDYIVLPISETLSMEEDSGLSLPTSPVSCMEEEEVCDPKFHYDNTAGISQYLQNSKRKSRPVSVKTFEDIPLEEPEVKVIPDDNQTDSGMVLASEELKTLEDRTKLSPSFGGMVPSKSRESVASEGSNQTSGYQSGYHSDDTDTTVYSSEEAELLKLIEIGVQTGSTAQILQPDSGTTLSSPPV
How it was run: as §1

[10] = target: T10, IGFR-1 (Homo sapiens, UniProt P08069); test: Kinase inhibition assay (33P transfer), IGFR-1; conditions: Table 2, class symbols A-E
T10 construct: Kinases are expressed as either kinase domains or full length constructs; made in house

T1 sequence (P09619 33-1106, species assumed): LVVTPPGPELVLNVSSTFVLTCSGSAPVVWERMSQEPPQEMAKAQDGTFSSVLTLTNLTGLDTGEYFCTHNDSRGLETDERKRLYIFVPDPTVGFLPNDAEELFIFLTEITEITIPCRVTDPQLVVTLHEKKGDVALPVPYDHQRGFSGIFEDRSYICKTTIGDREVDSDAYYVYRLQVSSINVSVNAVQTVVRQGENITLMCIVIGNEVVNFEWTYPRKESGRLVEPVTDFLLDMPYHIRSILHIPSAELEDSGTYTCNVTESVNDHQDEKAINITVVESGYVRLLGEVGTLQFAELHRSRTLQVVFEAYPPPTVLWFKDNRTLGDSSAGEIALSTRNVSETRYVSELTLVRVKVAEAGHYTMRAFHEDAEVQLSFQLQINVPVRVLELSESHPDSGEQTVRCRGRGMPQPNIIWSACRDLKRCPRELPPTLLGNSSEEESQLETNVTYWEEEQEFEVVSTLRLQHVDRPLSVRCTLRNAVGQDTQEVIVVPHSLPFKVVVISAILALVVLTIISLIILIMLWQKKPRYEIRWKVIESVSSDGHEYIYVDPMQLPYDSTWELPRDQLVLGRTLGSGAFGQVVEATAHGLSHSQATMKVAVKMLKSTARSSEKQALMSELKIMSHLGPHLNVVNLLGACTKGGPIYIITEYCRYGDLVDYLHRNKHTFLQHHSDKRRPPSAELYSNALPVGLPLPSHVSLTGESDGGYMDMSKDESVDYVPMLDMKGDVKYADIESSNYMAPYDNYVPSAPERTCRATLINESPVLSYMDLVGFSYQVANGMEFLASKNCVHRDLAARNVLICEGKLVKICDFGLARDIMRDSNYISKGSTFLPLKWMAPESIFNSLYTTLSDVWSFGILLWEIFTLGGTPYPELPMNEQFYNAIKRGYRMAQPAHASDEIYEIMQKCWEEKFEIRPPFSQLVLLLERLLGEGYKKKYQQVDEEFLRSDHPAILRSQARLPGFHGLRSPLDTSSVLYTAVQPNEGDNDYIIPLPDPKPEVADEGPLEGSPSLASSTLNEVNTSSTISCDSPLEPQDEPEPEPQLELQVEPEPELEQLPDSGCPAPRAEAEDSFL

| Compound | IC50 [1] | IC50 [2] | IC50 [3] | IC50 [4] | IC50 [5] | IC50 [6] | IC50 [7] | IC50 [8] | IC50 [9] | IC50 [10] |
| --- | --- | --- | --- | --- | --- | --- | --- | --- | --- | --- |
| COc1ccc(CNc2nc3ccccc3n2-c2ncnc(Nc3cccc(C(=O)O)c3)n2)cc1 [Compound 1070] | 0.856 to 5.13 µM | > 9.63 µM | > 9.63 µM | > 9.63 µM | 5.13 to 7.49 µM | > 9.63 µM | > 9.63 µM | > 9.63 µM | 0.856 to 5.13 µM | > 9.63 µM |
| COC(=O)c1ccc(-c2cc(Nc3ncnc(Nc4cccc(CCC(=O)O)c4)n3)[nH]n2)cc1 [Compound 992] | 0.871 to 5.22 µM | < 0.871 µM | 0.871 to 5.22 µM | 0.871 to 5.22 µM | 5.22 to 7.62 µM | < 0.871 µM | 0.871 to 5.22 µM | 0.871 to 5.22 µM | 0.871 to 5.22 µM | < 0.871 µM |
| COc1cc(Nc2ncnc(Nc3ccc(OCCO)cc3)n2)cc(OC)c1OC [Compound 636] | < 0.968 µM | < 0.968 µM | > 10.9 µM | 0.968 to 5.81 µM | > 10.9 µM | > 10.9 µM | > 10.9 µM | 0.968 to 5.81 µM | < 0.968 µM | > 10.9 µM |
| CCN(c1cccc(Cl)c1)c1ncnc(Nc2cc(OC)cc(OC)c2)n1 [Compound 724] | 1.04 to 6.22 µM | 1.04 to 6.22 µM | > 11.7 µM | < 1.04 µM | > 11.7 µM | 1.04 to 6.22 µM | 1.04 to 6.22 µM | 1.04 to 6.22 µM | 1.04 to 6.22 µM | 1.04 to 6.22 µM |
| COc1ccc(Nc2ncnc(NCc3cccc(Cl)c3)n2)cc1OC [Compound 792] | > 12.1 µM | 1.08 to 6.45 µM | > 12.1 µM | 1.08 to 6.45 µM | > 12.1 µM | > 12.1 µM | > 12.1 µM | 6.45 to 9.41 µM | > 12.1 µM | > 12.1 µM |
| COc1ccc(Nc2ncnc(Nc3cc(Cl)cc(Cl)c3)n2)cc1OC [Compound 898] | 8.92 to 11.5 µM | > 11.5 µM | > 11.5 µM | 6.12 to 8.92 µM | > 11.5 µM | > 11.5 µM | > 11.5 µM | > 11.5 µM | > 11.5 µM | 6.12 to 8.92 µM |
| OCc1cccc(Nc2ncnc(-c3cccnc3NCc3ccccc3)n2)c1 [Compound 1103] | < 1.04 µM | 1.04 to 6.24 µM | 9.1 to 11.7 µM | 1.04 to 6.24 µM | 9.1 to 11.7 µM | > 11.7 µM | > 11.7 µM | 9.1 to 11.7 µM | < 1.04 µM | > 11.7 µM |
| COc1ccc(CNc2ncnc(Nc3cc(-c4ccco4)[nH]n3)n2)cc1OC [Compound 822] | 1.02 to 6.1 µM | > 11.4 µM | 6.1 to 8.9 µM | 1.02 to 6.1 µM | > 11.4 µM | 6.1 to 8.9 µM | 1.02 to 6.1 µM | 6.1 to 8.9 µM | 8.9 to 11.4 µM | 1.02 to 6.1 µM |
| COc1ccc(Nc2ncnc(Nc3cc(-c4ccc(C)cc4)n[nH]3)n2)c(C)c1 [Compound 1126] | 1.03 to 6.19 µM | < 1.03 µM | > 11.6 µM | 1.03 to 6.19 µM | > 11.6 µM | 1.03 to 6.19 µM | 1.03 to 6.19 µM | 1.03 to 6.19 µM | 6.19 to 9.03 µM | < 1.03 µM |
| Cc1nccc(-c2cccc(Nc3ncnc(Nc4ccc5c(cnn5Cc5ccccc5)c4)n3)c2)n1 [Compound 901] | < 0.824 µM | 0.824 to 4.94 µM | > 9.27 µM | < 0.824 µM | 0.824 to 4.94 µM | 0.824 to 4.94 µM | 0.824 to 4.94 µM | 0.824 to 4.94 µM | 0.824 to 4.94 µM | > 9.27 µM |
| COc1cc(Nc2ncnc(-c3cccnc3NC(C)c3cccc4ccccc34)n2)cc(OC)c1OC (stereo not shown) [Compound 845] | 0.787 to 4.72 µM | 0.787 to 4.72 µM | > 8.85 µM | > 8.85 µM | 0.787 to 4.72 µM | > 8.85 µM | > 8.85 µM | 4.72 to 6.88 µM | < 0.787 µM | > 8.85 µM |
| COc1cc(Nc2ncnc(-c3cccnc3Nc3ccccc3)n2)ccc1NC(=O)CCCN1CCNCC1 [Compound 1093] | < 0.741 µM | 0.741 to 4.45 µM | > 8.34 µM | 0.741 to 4.45 µM | > 8.34 µM | 0.741 to 4.45 µM | 4.45 to 6.49 µM | > 8.34 µM | < 0.741 µM | 6.49 to 8.34 µM |
| COc1ccc(CNc2ncnc(Nc3cc(-c4ccco4)n[nH]3)n2)cc1 [Compound 994] | > 12.4 µM | > 12.4 µM | > 12.4 µM | > 12.4 µM | > 12.4 µM | > 12.4 µM | > 12.4 µM | > 12.4 µM | > 12.4 µM | > 12.4 µM |
| c1ccc(CNc2ncccc2-c2ncnc(Nc3cccc(Cn4ccnn4)c3)n2)cc1 [Compound 1101] | < 0.918 µM | 5.51 to 8.04 µM | > 10.3 µM | 0.918 to 5.51 µM | > 10.3 µM | 5.51 to 8.04 µM | 5.51 to 8.04 µM | > 10.3 µM | < 0.918 µM | > 10.3 µM |
| COc1cc(Nc2ncnc(N3CCCc4ccc(Cl)cc43)n2)cc(OC)c1OC [Compound 645] | > 10.5 µM | > 10.5 µM | > 10.5 µM | < 0.935 µM | > 10.5 µM | > 10.5 µM | > 10.5 µM | < 0.935 µM | > 10.5 µM | > 10.5 µM |
| COc1cc(Nc2ncnc(N3CCCc4cc(Cl)ccc43)n2)cc(OC)c1OC [Compound 639] | < 0.935 µM | 0.935 to 5.61 µM | > 10.5 µM | < 0.935 µM | > 10.5 µM | < 0.935 µM | > 10.5 µM | 5.61 to 8.18 µM | < 0.935 µM | > 10.5 µM |
| COc1cc(Nc2ncnc(-c3cccnc3Nc3ccc(C(F)(F)F)cc3)n2)cc(OC)c1OC [Compound 835] | > 9.03 µM | > 9.03 µM | > 9.03 µM | > 9.03 µM | > 9.03 µM | > 9.03 µM | > 9.03 µM | > 9.03 µM | > 9.03 µM | > 9.03 µM |
| COc1cc(Nc2ncnc(-c3cccnc3Nc3ccc(Oc4ccccc4)cc3)n2)cc(OC)c1OC [Compound 839] | 4.59 to 6.7 µM | > 8.61 µM | > 8.61 µM | > 8.61 µM | > 8.61 µM | > 8.61 µM | > 8.61 µM | 0.765 to 4.59 µM | > 8.61 µM | > 8.61 µM |
| COC(=O)c1ccc(-c2cc(Nc3ncnc(NCCc4ccc(OC)cc4)n3)[nH]n2)cc1 [Compound 817] | 0.898 to 5.39 µM | > 10.1 µM | > 10.1 µM | > 10.1 µM | > 10.1 µM | > 10.1 µM | > 10.1 µM | 0.898 to 5.39 µM | > 10.1 µM | > 10.1 µM |
